Results on nine molecules are retold here after publication PMC9602571, “Discovery of a Dual SENP1 and SENP2 Inhibitor” (International Journal of Molecular Sciences, 2022).

Bounds are passed on as bounds.

One series has as its target T1, Ataxin-3 (Homo sapiens, UniProt P54252).
T1 construct: purchased BPS 80399
As to the kind of experiment: Ataxin-3 activity assay, Ubiquitin-AMC substrate. The series is classed as biochemical. As to conditions: n = 2. The protocol: (§1) IC50 measurements were conducted at Reaction Biology Corporation, Malvern, PA, USA, with two replications using 10 concentrations starting at 200 μM with three-fold dilution. Curve fits were performed where the enzyme activities at the highest concentration of compounds were less than 65%. UCHL1 II was used as a control inhibitor. The procedure was performed analogous to the fluorogenic SENP2 assay described in 3.3.2. using the Ataxin-3 enzyme (BPS Cat# 80399) and Ubiquitin-AMC substrate (Enzo Cat# BML-SE211-0025). The final reaction conditions contained 500 nM Ataxin-3 and 100 nM Ubiquitin-AMC.

A further series has as its target T2, SENP2 (Homo sapiens, UniProt Q9HC62).
T2 construct: Human recombinant catalytic domain expressed in E. coli; purchased Enzo BML-UW9765; host or cells: E. coli
T2 sequence (Q9HC62 396-560 limits assumed): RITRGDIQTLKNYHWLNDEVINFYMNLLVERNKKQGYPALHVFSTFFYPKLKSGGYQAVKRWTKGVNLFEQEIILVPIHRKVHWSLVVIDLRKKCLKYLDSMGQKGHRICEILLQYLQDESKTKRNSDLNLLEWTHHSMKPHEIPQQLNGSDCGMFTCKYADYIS
The series can be described thus: Fluorogenic SENP2 assay, SUMO1-AMC substrate. The series is classed as biochemical. As to conditions: n = 2. The protocol: The IC50 measurements were conducted at Reaction Biology Corporation, Malvern, PA, USA, with two replications using 10 concentrations starting at 200 μM with a three-fold dilution. Curve fits were performed where the enzyme activities at the highest concentration of compounds were less than 65%. UCH-L3 I was used as a control inhibitor. To SENP2 (Enzo Cat# BML-UW9765, Human recombinant catalytic domain expressed in E. coli.) in reaction buffer (50 mM HEPES, 150 mM NaCl, 0.5 mM EDTA, 1 mM DTT, pH 7.5, 0.01% CHAPS) was delivered the compound stock solution by acoustic technology (Echo550; nanoliter range) and subsequently incubated for 15 min at ambient temperature. The substrate SUMO1-AMC (R&D Systems Cat# UL-551-050, Lot# 07613314A, Fluorescence labeled full-length SUMO1 protein) was delivered to the well-plate to initiate the reaction. The enzyme activities were monitored (Ex/Em = 355/460 nm) as a time-course measurement of the increase in fluorescence signal from SUMO1-AMC for 90 min at ambient temperature. The data were analyzed by taking the slope (signal/time) of linear portion of measurement. The slope was calculated using Excel and the curve fits were performed using GraphPad Prism7 with a four-parameter least-squares fit. The final reaction conditions contained 0.015 nM SENP2 and 300 nM SUMO1/2 or 3-AMC.

For another series, the target named is T3, UCHL1 (Homo sapiens, UniProt P09936).
T3 construct: purchased SignalChem U22-30H
T3 sequence (P09936 1-223): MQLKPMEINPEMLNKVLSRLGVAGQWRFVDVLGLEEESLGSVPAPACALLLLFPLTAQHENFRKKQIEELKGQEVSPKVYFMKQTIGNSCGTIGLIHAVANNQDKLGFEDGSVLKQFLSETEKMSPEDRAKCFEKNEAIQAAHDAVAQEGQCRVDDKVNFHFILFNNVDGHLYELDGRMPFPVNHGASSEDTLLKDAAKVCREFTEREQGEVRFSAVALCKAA
The series can be described thus: UCHL1 activity assay, Ubiquitin-AMC substrate. The series is classed as biochemical. As to conditions: n = 2. How it is done: as §1, with “UCHL1” for “Ataxin-3”, “(SignalChem” for “(BPS”, “U22-30H)” for “80399)”, “0.2” for “500”

In series [1] the target is T4, SENP1 (Homo sapiens, UniProt Q9P0U3).
T4 construct: Human recombinant, His6-SENP1 Catalytic Domain; His6 (N); purchased Boston Biochem (Bio-Techne AG) E-700
T4 sequence (Q9P0U3 450-613 limits assumed): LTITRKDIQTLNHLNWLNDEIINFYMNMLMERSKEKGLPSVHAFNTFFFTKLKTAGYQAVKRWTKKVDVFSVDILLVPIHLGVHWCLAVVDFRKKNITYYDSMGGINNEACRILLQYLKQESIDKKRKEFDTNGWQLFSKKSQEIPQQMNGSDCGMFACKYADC
The series can be described thus: Fluorogenic SENP1 assay, SUMO1-AMC substrate. The series is classed as biochemical. As to conditions: for IC50: SUMO1-AMC 300 nM, 0.02 nM SENP1, interval in parentheses, read-out: IC50 SENP1. How it is done: Human recombinant, His6-SENP1 Catalytic Domain (Boston Biochem Cat# E-700, Bio-Techne AG, Zug, Switzerland) was prepared in reaction buffer (50 mM HEPES, 150 mM NaCl, 0.5 mM EDTA, 1 mM DTT, pH 7.5, 0.01% CHAPS). To this solution, a 20 mM or 50 mM inhibitor stock solution in DMSO was added and the mixture was incubated for 15 min at ambient temperature. […] The slope was calculated using Excel and the curve fits were performed using GraphPad Prism7 with a four-parameter least-squares fit. The final reaction conditions contained 0.02 nM SENP1 and 300 nM SUMO1/2 or 3-AMC).

Series [2] deals with T4, SENP1. As to the kind of experiment: Fluorogenic SENP1 assay, SUMO2-AMC substrate. As to conditions: n = 2. The series is classed as biochemical. How it is done: (§2) Human recombinant, His6-SENP1 Catalytic Domain (Boston Biochem Cat# E-700, Bio-Techne AG, Zug, Switzerland) was prepared in reaction buffer (50 mM HEPES, 150 mM NaCl, 0.5 mM EDTA, 1 mM DTT, pH 7.5, 0.01% CHAPS). To this solution, a 20 mM or 50 mM inhibitor stock solution in DMSO was added and the mixture was incubated for 15 min at ambient temperature. […] The data were analyzed by taking the slope (signal/time) of the linear portion of measurement. The slope was calculated using Excel and the curve fits were performed using GraphPad Prism7 with a four-parameter least-squares fit. The final reaction conditions contained 0.02 nM SENP1 and 300 nM SUMO1/2 or 3-AMC).

Series [3] deals with T4, SENP1. As to the kind of experiment: Fluorogenic SENP1 assay, SUMO3-AMC substrate. The series is classed as biochemical. As to conditions: n = 2. The protocol: as §2
The target in series [4] is T4, SENP1. The series can be described thus: Photo crosslinking experiments with SENP1. The series is classed as binding. As to conditions: probe 200 µM, SENP1 10 µM, UV 30 min. The protocol:
A buffer exchange of the commercially available 6 × His-SENP1 Protein (Boston Biochem Cat# E-700) to a 50 mM HEPES, 150 mM NaCl; 0.5 mM EDTA, 1 mM DTT, pH 7.5 was performed. A total of 200 μM of the photo affinity probe 56 with or without competitor molecule 11 (400 μM) was incubated in 10 uM SENP1 for 30 min at 0 °C. Subsequently, the mixtures were irradiated in a Proma UV exposure unit equipped with four 8 Watt lamps (Hitachi FL8BL-8, ~350 nm) for 30 min at 0 °C. Then, 50 µL of the crosslinked proteins were mixed with freshly prepared click mix solution (50 μL; 1 mM CuSO4, 1 mM TCEP, 100 uM THPTA from a 5 mM DMSO stock, dissolved in Milli-Q Water) and a 10 mM stock solution of azide fluor 545 (1 μL) and incubated at 0 °C for 14 h. […] Protein samples for SDS-PAGE were first prepared in 1 × Laemmli sample buffer (diluted from 4 × Laemmli sample buffer (ROTI®Load), and subsequently denatured at 100 °C for 15 min. After SDS-PAGE gel electrophoresis separation, the fluorescence was visualized (Ex. 520 nm, Em. 575 nm) on the SDS PAGE gel using ImageQuant^TM 4000 LAS (GE Healthcare, Chicago, IL, USA). Secondly, the gels were stained with Bio-Safe Coomassie Brilliant Blue G-250 (BioRad) for 60 min. De-staining was performed with 40% (v/v) methanol, 10% (v/v) glacial acetic acid, 50% (v/v) Milli-Q water until protein bands became visible.

T1 sequence (P54252 whole entry): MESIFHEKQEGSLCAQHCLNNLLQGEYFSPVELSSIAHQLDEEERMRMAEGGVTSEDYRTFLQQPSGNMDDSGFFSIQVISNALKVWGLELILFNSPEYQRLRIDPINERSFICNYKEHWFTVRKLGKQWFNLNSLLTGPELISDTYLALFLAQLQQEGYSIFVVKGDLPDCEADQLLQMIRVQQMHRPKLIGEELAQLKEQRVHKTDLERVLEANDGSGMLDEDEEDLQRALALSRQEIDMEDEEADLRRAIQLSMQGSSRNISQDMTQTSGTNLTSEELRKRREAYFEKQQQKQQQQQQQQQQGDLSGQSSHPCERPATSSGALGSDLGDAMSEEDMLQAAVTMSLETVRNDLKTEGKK

As a reminder, the IC50 is the point on the concentration scale where inhibition reaches its midpoint. `O=C(COC(=O)c1ccc(NC(=O)c2cccc(OCc3ccccc3)c2)cc1)c1ccc(Cl)cc1` [Compound 7, reference compound]: the half-maximal inhibitory concentration (IC50) against Ataxin-3 was > 100 µM; against SENP2, 9.3 µM; on UCHL1, 64 µM.

Broadly, the melting point is the temperature of the solid-liquid transition. On to `COC(=O)c1ccc(-c2cn(CC(=O)N3c4ccccc4NC(=O)C34CCCC4)nn2)cc1` [Compound 48, Methyl 4-[1-(2-oxo-2-{3′-oxo-3′,4′-dihydro-1′H-spiro[cyclopentane-1,2′-quinoxalin]-1′-yl}ethyl)-1H-1,2,3-triazol-4-yl]benzoate], for which the melting point was 263 °C (dec.). The 50% inhibitory concentration (IC50) on SENP1 [1] was found to be 7.5 µM.

`COc1ccc(-c2cn(CC(=O)N3c4ccccc4NC(=O)C34CCCC4)nn2)cc1` [Compound 49, 1′-{2-[4-(4-Methoxyphenyl)-1H-1,2,3-triazol-1-yl]acetyl}-3′,4′-dihydro-1′H-spiro[cyclopentane-1,2′-quinoxalin]-3′-one]: the melting point is 249 °C (dec.). Moreover, on SENP1 [1], the concentration for half-maximal inhibition (IC50) was 13 µM.

On to `O=C(Cn1cc(-c2ccccn2)nn1)N1c2ccccc2NC(=O)C12CCCC2` [Compound 50, 1′-{2-[4-(Pyridin-2-yl)-1H-1,2,3-triazol-1-yl]acetyl}-3′,4′-dihydro-1′H-spiro[cyclopentane-1,2′-quinoxalin]-3′-one], for which the melting point is 218 °C (dec.). The concentration for half-maximal inhibition (IC50) at SENP1 [1] is > 200 µM. The “SENP1 inhibition in words” value on SENP1 [1] (at 200 µM) was “only slight inhibition”.

Turning to `O=C(O)Cc1cn(CC(=O)N2c3ccccc3NC(=O)C23CCCC3)nn1` [Compound 52, 2-[1-(2-Oxo-2-{3′-oxo-3′,4′-dihydro-1′H-spiro[cyclopentane-1,2′-quinoxalin]-1′-yl}ethyl)-1H-1,2,3-triazol-4-yl]acetic acid], the melting point is 230 °C (dec.). Also, at SENP1 [1], the IC50 was > 100 µM.

Take `O=C(Cn1nnnc1-c1ccccc1)N1c2ccccc2NC(=O)C12CCCC2` [Compound 54, 1′-[2-(5-Phenyl-1H-1,2,3,4-tetrazol-1-yl)acetyl]-3′,4′-dihydro-1′H-spiro[cyclopentane-1,2′-quinoxalin]-3′-one]: the melting point is 197 to 202 °C (dec.). The IC50 on SENP1 [1] was 50 µM.

`O=C(Cn1nnc(-c2ccccc2)n1)N1c2cscc2NC(=O)C12CCCC2` [Compound 55, 1′-[2-(5-Phenyl-2H-1,2,3,4-tetrazol-2-yl)acetyl]-3′,4′-dihydro-1′H-spiro[cyclopentane-1,2′-thieno [3,4-b]pyrazin]-3′-one] showed a melting point of 231 to 233 °C. In addition, the IC50 against Ataxin-3 was > 100 µM. On SENP2, this molecule registered a 50% inhibitory concentration (IC50) of 5.8 µM. The molecule further returned an IC50 at SENP1 [2] of 18 µM. For the same molecule, the IC50 at SENP1 [1] turned out to be 10 µM. In addition, the IC50 against SENP1 [3] was found to be 23 µM. Also, it took 132 µM to reach half-maximal inhibition on UCHL1 (IC50).

With `C#CCCC1(CCC(=O)N2c3ccccc3NC(=O)C23CCCC3)N=N1` [Compound 56, 1′-{3-[3-(But-3-yn-1-yl)-3H-diazirin-3-yl]propanoyl}-3′,4′-dihydro-1′H-spiro[cyclopentane-1,2′-quinoxalin]-3′-one], the “covalent labelling of SENP1 by photo probe (TAMRA-azide fluorescence)” value at SENP1 [4] is “fluorescent band was visible”. The IC50 on SENP1 [1] stood at 24 µM.

On to `CCCCCCCC(=O)N1c2ccccc2NC(=O)C12CCCC2` [Compound 57, 1′-Octanoyl-3′,4′-dihydro-1′H-spiro[cyclopentane-1,2′-quinoxalin]-3′-one], for which the melting point lay within 67 to 70 °C. For the same molecule, at SENP1 [1], the IC50 worked out at 6.6 µM.
